Values of other authors, collected in patent US20110311631A1, “CONTROLLED RELEASE PHARMACEUTICAL COMPOSITION WITH RESISTANCE AGAINST THE INFLUENCE OF ETHANOL EMPLOYING A COATING COMPRISING A POLYMER MIXTURE AND EXCIPIENTS” (EVONIK RÖHM GMBH, priority 2009, published 2011).
Counter-ions that a name gives are not always drawn. Like-named read-outs stand apart in the source and are kept apart here.

Conditions: USP classification, between 15° C. and 25° C.

SMILES | Solubility in water | Solubility in ethanol (HCl) | Solubility in ethanol (listed as diltiazem, HCl) | Solubility in ethanol (listed as metoprolol) | Solubility in ethanol | Solubility in ethanol (listed as naloxone) | Solubility in ethanol (listed as theophyllin)
C=CCN1CC[C@]23c4c5ccc(O)c4O[C@H]2C(=O)CC[C@@]3(O)[C@H]1C5 [Naloxone] | Soluble (more than 10 to 30) | – | – | – | Slightly soluble (more than 100 to 1000) | slightly soluble | –
Cn1c(=O)c2[nH]cnc2n(C)c1=O [Theophylline] | Slightly soluble (more than 100 to 1000) | – | – | – | Sparingly soluble (more than 30 to 100) | – | sparingly soluble

Continued, in another order:

Solubility in water | Solubility in ethanol (HCl) | Solubility in ethanol (listed as diltiazem, HCl) | Solubility in ethanol (listed as metoprolol) | SMILES | Solubility in ethanol | Solubility in ethanol (listed as naloxone) | Solubility in ethanol (listed as theophyllin)
Practically insoluble (more than 10.000) | – | – | – | NC(=O)N1c2ccccc2C=Cc2ccccc21 [Carbamazepine] | Soluble (more than 10 to 30) | – | –
Freely soluble (from 1 to 10) | Sparingly soluble (more than 30 to 100) | sparingly soluble | – | COc1ccc([C@@H]2Sc3ccccc3N(CCN(C)C)C(=O)[C@@H]2OC(C)=O)cc1 [Diltiazem HCl] | – | – | –
Freely soluble (from 1 to 10) | – | – | sparingly soluble | COCCc1ccc(OCC(O)CNC(C)C)cc1 (centres unmarked) [Metoprolol succinate] | Sparingly soluble (more than 30 to 100) | – | –
